In patent publication US10413541B2, “Oxabicycloheptanes and oxabicycloheptenes for the treatment of depressive and stress disorders” (LIXTE BIOTECHNOLOGY, INC., priority 2015, dated 2019):
“Also recorded” adds a separate entry of the source. Where two headings read alike, the source gives them in different places.

Columns and labels:
Type in all cases: cell-based, mice
[1] = system: GABAB-GIRK currents in LHb neurons; details: for I-baclofen, residual current independent of GIRKs: barium 1 mM in the bath
[2] = system: LHb neurons; assay: Cell-attached recording of spontaneous firing of LHb neurons; details: baclofen application, then CGP54626 10 μM
Experimental: (§1) Animals were anesthetized with Ketamine/Xylazine (50 mg/10 mg Kg-1 i.p.; Sigma-Aldrich, France). The preparation of LHb-containing brain slices was done in bubbled ice-cold 95% O2/5% CO2-equilibrated solution containing (in mM): cholineCl 110; glucose 25; NaHCO3 25; MgCl2 7; ascorbic acid 11.6; Na+-pyruvate 3.1; KCl 2.5; NaH2PO4 1.25; CaCl2 0.5. Sagittal slices (250 μm) were stored at room temperature in 95% O2/5% CO2-equilibrated artificial cerebrospinal fluid (ACSF) containing (in mM): NaCl 124; NaHCO3 26.2; glucose 11; KCl 2.5; CaCl2 2.5; MgCl2 1.3; NaH2PO4 1. Recordings (flow rate of 2.5 ml/min) were made under an Olympus-BX51 microscope (Olympus, France) at 32° C. Currents were amplified, filtered at 5 kHz and digitized at 20 kHz. Access resistance was monitored by a step of −4 mV (0.1 Hz). Experiments were discarded if the access resistance increased more than 20%.
(§2) The internal solution to measure GABAB-GIRK currents and neuronal excitability contained 140 mM potassium gluconate, 4 mM NaCl, 2 mM MgCl2, 1.1 mM EGTA, 5 mM HEPES, 2 mM Na2ATP, 5 mM sodium creatine phosphate, and 0.6 mM Na3GTP (pH 7.3), with KOH. When we measured the synaptic inhibitory or excitatory release the internal solution contained (in mM): CsCl 130; NaCl 4; MgCl2 2; EGTA 1.1; HEPES 5; Na2ATP 2; Na+-creatine-phosphate 5; Na3GTP 0.6, and spermine 0.1. The liquid junction potential was −3 mV. For cell-attached recordings the internal solution consisted in ACSF.
(§3) Cell-attached recordings in ACSF were performed in GΩ seal with a Vc=0 and Hc=0. Whole-cell voltage clamp recordings were achieved to measure GABAB-GIR currents in presence of Bicuculine (10 μM), NBQX (20 μM) and AP5 (50 μM). […] GABAB-GIRK currents were confirmed by antagonism with either 10 μM of CGP54626, a specific GABAB antagonist or 1 mM Ba^2, a selective inhibitor of inward rectifiers. For the GTPγS experiment, 100 μM of GTPγS was added to the internal solution in place of Na3GTP.

[3] = system: LHb neurons; assay: Current-clamp excitability (evoked action potentials, input-output curve) of LHb neurons in slices; details: baclofen bath application, saturating dose
Experimental: as §1, §2
For the Okadaic acid (OA) and the CaMKII inhibitor KN93 experiments, respectively 100 nM of OA or 10 μM of KN93 were added in the internal solution. For the PP2A inhibitor LB100 experiments, LB100 (0.1 μM) was applied in the bath. Miniature excitatory postsynaptic currents (mEPSCs) were recorded in voltage-clamp mode at −60 mV in presence of bicuculine (10 μM) and TTX (1 μM). Miniature inhibitory postsynaptic currents (mIPSCs) were recorded (−60 mV) in presence of NBQX (20 μM) and TTX (1 μM). EPSCs and IPSCs were evoked through an ACSF filled monopolar glass electrode placed 200 μm from the recording site in the stria medullaris. AMPA:NMDA ratios of evoked-EPSC were obtained by AMPA-EPSC −60 mV/NMDA-EPSCs at +40 mV. Rectification Index (RI) was computed by […]-60/AMPA-EPSC+40. For the experiments in which high-frequency stimulation trains were used to determine presynaptic release probability, QX314 (5 mM) was included in the internal solution to prevent the generation of sodium spikes. Current-clamp experiments, were performed by a series of current steps (negative to positive) injected to induce action potentials (5-10 pA injection current per step, 800 ms).

[4] = system: GIRK channels; assay: GTPγS-induced Ba2+-sensitive outward current (I-GTPγS) in LHb neurons of brain slices; details: GTPγS 100 μM in the internal solution
Experimental: as §1, §3

[5] = KN93 10 μM intracellular dialysis
[6] = Okadaic acid 100 nM intracellular dialysis

[Ba+2] [barium]
Effect on I-Baclofen ([1]; barium 1 mM): abolished

C[C@H](NC[C@H](O)CP(=O)(O)CC1CCCCC1)c1ccc(Cl)c(Cl)c1 [CGP54626]
Reversal of I-baclofen ([1]; CGP54626 10 μM): fully reversed; also recorded: readily reversed
Firing rate of LHb neurons ([2]; CTRL mice): 3.62±0.65 Hz
Firing rate of LHb neurons ([2]; FsE mice): 8.23±2.25 Hz

COc1ccc(S(=O)(=O)N(CCO)c2ccccc2CN(C)C/C=C/c2ccc(Cl)cc2)cc1 [KN93]
I-baclofen current ([1]; KN93 10 μM in the internal solution, CTRL mice): 106.3±18.37 pA
FsE induced reduction of GABAB-GIRK currents [1, 5]: failed to recover; also recorded: does not affect
I-Baclofen at baseline (control mice) [1, 5]: did not affect

NCC(CC(=O)O)c1ccc(Cl)cc1 (centres unmarked) [baclofen]
I baclofen ([1]; 1 h after exposure to fox urine (OPE mice)): 47.4±7.9
I baclofen ([1]; CTRL mice of odor predator exposure paradigm): 110.5±29.1
I-baclofen ([1]; CTRL mice of restraint stress procedure): 121.7±14.8
I-baclofen ([1]; baclofen 100 μM, FsE mice, 1 hour after): 55.4±7.2 pA
I-baclofen ([1]; baclofen 100 μM, FsE mice, 1 day after): 59.8±9.6 pA
I-baclofen ([1]; baclofen 100 μM, FsE mice, 7 days after): 40.1±9.0 pA
I-baclofen ([1]; baclofen 100 μM, FsE mice, 14 days after): 39.6±6.6 pA
I-baclofen ([1]; baclofen 100 μM, FsE mice, 30 days after): 133.0±26.1 pA
I-baclofen, residual current independent of GIRKs ([1]; CTRL mice): 21.3±3.7
I-baclofen, residual current independent of GIRKs ([1]; FsE mice): 21.3±9.1
I-baclofen ([1]; restraint stress (RS) mice, 1 h after the procedure): 68.3±15.3
Firing of LHb neurons evoked by current steps (20 pA) ([3]; FsE animals): only partially decreased
Firing of LHb neurons evoked by current steps (20 pA) ([3]; control mice): significantly depressed
Firing rate of LHb neurons ([2]; CTRL mice): 0.33±0.11 Hz
Firing rate of LHb neurons ([2]; FsE mice): 4.89±1.40 Hz

Nc1nc2c(ncn2[C@@H]2O[C@H](COP(=O)(O)OP(=O)(O)OP(O)(O)=S)[C@@H](O)[C@H]2O)c(=O)[nH]1 [GTPγS, reference compound]
GTPγS-evoked Ba2+-sensitive outward current ([4]; CTRL mice): 92.55±21.83 pA
GTPγS-evoked Ba2+-sensitive outward current ([4]; FsE mice): 38.00±5.27 pA

C=C1[C@@H](O)[C@@H]2O[C@]3(CC[C@H](/C=C/[C@@H](C)[C@@H]4CC(C)=C[C@@]5(O[C@H](C[C@@](C)(O)C(=O)O)CC[C@H]5O)O4)O3)CC[C@H]2O[C@@H]1[C@@H](O)C[C@H](C)[C@H]1O[C@@]2(CCCCO2)CC[C@H]1C [Okadaic Acid]
I-baclofen current ([1]; Okadaic Acid 100 nM in the internal solution, CTRL mice): 130.7±25.25 pA
I-baclofen current ([1]; Okadaic Acid 100 nM in the internal solution, FsE mice): 120.4±25.61 pA
I-baclofen CTRL vs FsE ([1]; Okadaic Acid 100 nM intracellular dialysis, listed as OA): comparable to control mice
I-Baclofen at baseline (control mice) [1, 6]: comparable to naïve condition
I-baclofen CTRL vs FsE [1, 6]: no difference between groups
